Data set [1] deals with apomorphine-induced cage climbing in mice. Briefly: Apomorphine-induced climbing behavior in mice. Type of data set: in vivo. The note with it: ip 30 min prior to apomorphine (1 mg/kg, sc); for ED50: Mus musculus, read-out: Inhibitory effects on apomorphine-induced climbing behavior ED50 (mg/kg, ip). As to the method:
When mice were treated with apomorphine (1 mg/kg, sc), a potent dopamine receptor agonist, and were put into cylindrical cages (diameter, 12 cm/height, 14 cm) with the floor and wall consisting of metal bars and covered with a lid, they begin to perform repeatedly a psychotic behavior of ‘cage climbing’. Their climbing behaviors were monitored every 10 min for 30 min and scored by 4-point rating scale (0˜3 points) depending on the extent of the behavior (Costentin, J. et al., Nature 1975, 257, 405-7; Protais, P. et al., Psychopharmacology 1976, 50, 1-6).
The compounds were injected intraperitoneally into mice 30 min prior to apomorphine administration. The inhibitory effects of the compounds against control group were measured and each ED50 was calculated therefrom.

The subject of data set [2] is rotarod deficit in mice. Briefly: Rotarod deficit in mice. The note with it: ip. Format: in vivo. As to the method: (§1) Each mouse was administered with a test drug, and then placed on a 1 inch diameter knurled plastic rod rotating at 6 rpm (Ugo-Basile, Milano, Italy), and the rotarod deficit (%) was obtained by counting the number of mice fallen from the rotating rod within 1 min at 30, 60, 90, and 120 min after the administration of the drug.
In general terms: Falling from the rotarod earlier than controls is read as motor impairment.

The target in data set [3] is T1, Human recombinant dopamine D2 receptor (Homo sapiens, UniProt P14416).
T1 construct: purchased PerkinElmer; host or cells: CHO cell line
T1 sequence (P14416 whole entry): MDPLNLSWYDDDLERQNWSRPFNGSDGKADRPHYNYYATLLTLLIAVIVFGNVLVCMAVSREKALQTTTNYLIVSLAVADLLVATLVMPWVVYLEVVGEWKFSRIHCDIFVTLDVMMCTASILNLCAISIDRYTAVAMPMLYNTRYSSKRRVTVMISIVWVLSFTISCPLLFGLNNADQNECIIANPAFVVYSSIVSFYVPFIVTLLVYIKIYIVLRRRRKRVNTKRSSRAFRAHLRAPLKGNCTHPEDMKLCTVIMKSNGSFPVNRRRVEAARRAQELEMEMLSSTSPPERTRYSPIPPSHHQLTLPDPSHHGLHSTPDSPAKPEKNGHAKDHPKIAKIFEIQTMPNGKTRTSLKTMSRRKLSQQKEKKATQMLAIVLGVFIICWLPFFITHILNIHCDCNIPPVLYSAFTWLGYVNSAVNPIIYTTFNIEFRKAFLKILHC
Briefly: Measurement of affinity for dopamine D2 receptor ([3H]spiperone binding). As to the method: (§2) Human recombinant dopamine D2 and D3 receptors, which were expressed in CHO cell lines, respectively, were purchased from PerkinElmer and Euroscreen, respectively.
(§3) 50 mM Tris-HCl (pH 7.4) containing […] and 1 mM EDTA was used as a buffer solution for the measurement of affinity for dopamine D2 receptor. 50 mM Tris-HCl (pH 7.4) containing 5 mM MgCl2, 5 mM EDTA, 5 mM KCl, 1.5 mM CaCl2 and 120 mM NaCl was used as a buffer solution for the measurement of affinity for dopamine D3 receptor. For measurement of non-specific binding, 10 μM haloperidol (haloperidol) was used.

The next data set has as its target 5-HT6 receptor (Homo sapiens, UniProt P50406). Briefly: Serotonin receptor binding experiment, 5-HT6. More on the design: species or system human or rat. To be noted: [3H]LSD 1.8 nM, 60 min at 37° C.; read-out: Receptor affinity (IC50, nM) 5-HT6. The method, then: (§4) The measurement of affinity for serotonin 5-HT receptor family was performed according to the experimental conditions as specified in Table 2 below using the method same as in Experimental Example 1 above.

The target in a further data set is T2, 5-HT2C receptor (Homo sapiens, UniProt P28335).
T2 sequence (P28335 33-458): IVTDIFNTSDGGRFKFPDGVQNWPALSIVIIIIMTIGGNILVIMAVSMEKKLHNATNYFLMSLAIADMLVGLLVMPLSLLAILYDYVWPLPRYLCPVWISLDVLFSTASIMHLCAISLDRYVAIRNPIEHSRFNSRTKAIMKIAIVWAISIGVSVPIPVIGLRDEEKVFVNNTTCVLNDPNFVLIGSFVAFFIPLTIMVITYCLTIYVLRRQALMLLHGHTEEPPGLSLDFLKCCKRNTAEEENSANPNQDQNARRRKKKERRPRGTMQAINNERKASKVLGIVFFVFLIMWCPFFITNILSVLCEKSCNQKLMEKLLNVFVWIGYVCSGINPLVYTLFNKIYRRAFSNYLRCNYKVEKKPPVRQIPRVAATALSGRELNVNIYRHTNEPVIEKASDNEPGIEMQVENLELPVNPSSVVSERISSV
Briefly: Serotonin receptor binding experiment, 5-HT2C. More on the design: species or system human or rat. To be noted: [3H]Mesulergine 1 nM, 30 min at 37° C.; read-out: Receptor affinity (IC50, nM) 5-HT2C. The method, then: as §4

In a further data set the target is T3, 5-HT1A receptor (Homo sapiens, UniProt P08908).
T3 sequence (P08908 1-422): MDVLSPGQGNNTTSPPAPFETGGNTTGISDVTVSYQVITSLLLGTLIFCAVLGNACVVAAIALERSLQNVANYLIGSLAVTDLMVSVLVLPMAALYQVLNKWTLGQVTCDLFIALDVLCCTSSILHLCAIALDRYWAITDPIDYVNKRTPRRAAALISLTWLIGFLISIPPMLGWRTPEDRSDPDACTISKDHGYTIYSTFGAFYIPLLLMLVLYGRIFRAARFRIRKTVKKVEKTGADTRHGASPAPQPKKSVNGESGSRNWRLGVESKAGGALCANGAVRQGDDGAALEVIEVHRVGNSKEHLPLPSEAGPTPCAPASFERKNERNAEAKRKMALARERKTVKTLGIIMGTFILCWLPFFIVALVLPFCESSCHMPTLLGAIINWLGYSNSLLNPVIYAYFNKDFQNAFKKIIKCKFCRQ
Nature of the data set: Serotonin receptor binding experiment, 5-HT1A. Also on record: species or system human or rat. The note with it: [3H]8-OH-DPAT 0.5 nM, 60 min at 27° C.; read-out: Receptor affinity (IC50, nM) 5-HT1A. As to the method:
as §4

For data set [4], the target named is T4, Human recombinant dopamine D3 receptor (Homo sapiens, UniProt P35462).
T4 construct: purchased Euroscreen; host or cells: CHO cell line
T4 sequence (P35462 whole entry): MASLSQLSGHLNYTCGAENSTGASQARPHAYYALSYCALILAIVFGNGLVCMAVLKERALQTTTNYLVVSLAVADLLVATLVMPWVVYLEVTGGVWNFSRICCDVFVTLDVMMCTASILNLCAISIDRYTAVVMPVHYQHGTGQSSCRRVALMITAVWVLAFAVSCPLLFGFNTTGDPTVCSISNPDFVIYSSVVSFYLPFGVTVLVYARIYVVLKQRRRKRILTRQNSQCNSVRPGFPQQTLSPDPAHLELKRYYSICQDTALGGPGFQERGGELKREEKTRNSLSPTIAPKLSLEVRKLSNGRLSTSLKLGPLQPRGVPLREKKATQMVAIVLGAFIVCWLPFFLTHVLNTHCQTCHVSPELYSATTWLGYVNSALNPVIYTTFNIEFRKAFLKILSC
Briefly: Measurement of affinity for dopamine D3 receptor ([3H]spiperone binding). To be noted: [3H]spiperone 0.8 nM, CHO cell line, 60 min at 27° C. The method, then: as §2, §3

The next data set concerns the target 5-HT2A receptor (Homo sapiens, UniProt P28223). Briefly: Serotonin receptor binding experiment, 5-HT2A. Also on record: species or system human or rat. To be noted: [3H]ketanserin 1 nM, 15 min at 37° C.; read-out: Receptor affinity (IC50, nM) 5-HT2A. The method, then: as §4
A further data set addresses 5-HT7 receptor (Homo sapiens, UniProt P34969). Nature of the data set: Serotonin receptor binding experiment, 5-HT7. Also on record: species or system human or rat. To be noted: [3H]LSD 3 nM, 90 min at 27° C.; read-out: Receptor affinity (IC50, nM) 5-HT7. As to the method:
as §4

Data set [5] has as its target T5, human recombinant dopamine D4.2 receptor (Homo sapiens, UniProt P21917, DEL265-296).
T5 construct: purchased PerkinElmer Life and Analytical Sciences, USA; host or cells: CHO-K1 cells
T5 sequence (P21917 with tags, fused parts or gaps DEL265-296): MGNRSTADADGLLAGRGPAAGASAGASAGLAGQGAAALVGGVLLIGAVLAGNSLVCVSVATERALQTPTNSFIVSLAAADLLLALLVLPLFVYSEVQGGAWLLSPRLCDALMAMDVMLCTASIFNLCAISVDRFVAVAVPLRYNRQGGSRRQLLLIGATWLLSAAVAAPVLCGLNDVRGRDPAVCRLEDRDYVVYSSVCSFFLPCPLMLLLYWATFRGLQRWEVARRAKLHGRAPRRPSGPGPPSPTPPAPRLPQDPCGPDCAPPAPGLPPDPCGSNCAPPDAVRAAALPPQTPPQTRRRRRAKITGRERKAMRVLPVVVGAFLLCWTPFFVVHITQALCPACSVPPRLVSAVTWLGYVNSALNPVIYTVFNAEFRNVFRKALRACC
Nature of the data set: Measurement of affinity for dopamine D4 receptor ([3H]YM-09151-2 binding). The note with it: [3H]YM-09151-2 0.1 nM, receptor expressed in CHO-K1 cells, 120 min at 25° C. As to the method:
The affinities of the compounds for dopamine D4 receptor were measured by using human recombinant dopamine D4.2 receptor (PerkinElmer Life and Analytical Sciences, USA) expressed in CHO-K1 cells, and [^3H]YM-09151-2 (PerkinElmer) was used as a radioactive ligand.
50 mM Tris-HCl (pH 7.4) containing 120 mM NaCl, 5 mM KCl, 5 mM MgCl2 and 1 mM EDTA was used as a buffer solution for the analysis of receptor binding. [^3H] YM-09151-2 binding reactions were performed in a 96-well plate format.
For drug screening, a reaction mixture with a final volume of 0.25 mL was prepared by mixing a compound of the present invention, D4 receptor membrane (43 μg/well), [^3H] YM-09151-2 (0.1 nM), 50 mM Tris-HCl (pH 7.4) and the like. The reaction mixture was incubated for 120 min at 25° C., and then promptly passed through Wallac GF/C glass fiber filter (Wallac, Finland), which was already wetted in 0.5% PEI, by using Inotech harvester (Inotech) to terminate the reaction, and then washed with cold 50 mM Tris-HCl buffer solution. The filter was then covered with MeltiLex, sealed in a sample bag, and then dried in an oven. The radioactivity retained in the filter was finally counted using MicroBeta Plus, Wallac.
The affinity (IC50) of a compound for the receptor was calculated via nonlinear regression analysis of sigmoidal dose-response equation with the data obtained from three independent experiments (GraphPad Prism Program, San Diego, USA), which are carried out using 7-8 different concentrations of the compound in duplicate. Nonspecific binding was measured in the presence of 10 μM clozapine.

A short description of data set [6]: Rotarod deficit in mice. Type of data set: in vivo. The note with it: mouse, in vivo; mice, ip, rod rotating at 6 rpm, 30-120 min after administration. As to the method:
as §1

By IC50 is commonly meant the midpoint of a concentration-inhibition curve. As a reminder, the TD50 is the 50% point of the dose-response relation for the toxic effect studied. Read a high TD50 as lower toxicity.

5-HT7 receptor, sequence (P34969 whole entry): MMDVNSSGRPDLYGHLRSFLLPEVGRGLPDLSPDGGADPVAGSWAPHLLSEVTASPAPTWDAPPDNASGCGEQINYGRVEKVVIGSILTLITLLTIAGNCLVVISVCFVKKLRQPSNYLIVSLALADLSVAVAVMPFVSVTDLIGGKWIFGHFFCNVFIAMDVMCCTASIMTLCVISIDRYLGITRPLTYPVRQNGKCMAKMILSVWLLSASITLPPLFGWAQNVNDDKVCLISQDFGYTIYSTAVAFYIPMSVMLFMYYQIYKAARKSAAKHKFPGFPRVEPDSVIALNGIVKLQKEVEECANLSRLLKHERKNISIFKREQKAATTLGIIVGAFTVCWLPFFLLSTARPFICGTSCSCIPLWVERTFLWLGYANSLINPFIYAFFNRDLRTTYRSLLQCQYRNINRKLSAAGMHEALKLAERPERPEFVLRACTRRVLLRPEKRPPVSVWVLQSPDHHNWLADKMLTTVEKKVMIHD
5-HT2A receptor, sequence (P28223 whole entry): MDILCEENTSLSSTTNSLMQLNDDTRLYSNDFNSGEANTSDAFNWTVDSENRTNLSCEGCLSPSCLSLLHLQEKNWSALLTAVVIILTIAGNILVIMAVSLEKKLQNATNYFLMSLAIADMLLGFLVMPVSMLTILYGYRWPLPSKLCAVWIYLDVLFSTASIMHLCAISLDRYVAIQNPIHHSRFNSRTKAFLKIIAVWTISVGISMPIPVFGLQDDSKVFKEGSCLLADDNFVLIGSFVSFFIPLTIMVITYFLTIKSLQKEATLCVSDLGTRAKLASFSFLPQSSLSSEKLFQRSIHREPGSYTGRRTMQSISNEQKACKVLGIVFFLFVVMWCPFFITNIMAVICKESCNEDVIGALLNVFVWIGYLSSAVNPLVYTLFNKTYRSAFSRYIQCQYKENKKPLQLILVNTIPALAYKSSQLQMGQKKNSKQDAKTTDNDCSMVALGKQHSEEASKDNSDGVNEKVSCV
5-HT6 receptor, sequence (P50406 whole entry): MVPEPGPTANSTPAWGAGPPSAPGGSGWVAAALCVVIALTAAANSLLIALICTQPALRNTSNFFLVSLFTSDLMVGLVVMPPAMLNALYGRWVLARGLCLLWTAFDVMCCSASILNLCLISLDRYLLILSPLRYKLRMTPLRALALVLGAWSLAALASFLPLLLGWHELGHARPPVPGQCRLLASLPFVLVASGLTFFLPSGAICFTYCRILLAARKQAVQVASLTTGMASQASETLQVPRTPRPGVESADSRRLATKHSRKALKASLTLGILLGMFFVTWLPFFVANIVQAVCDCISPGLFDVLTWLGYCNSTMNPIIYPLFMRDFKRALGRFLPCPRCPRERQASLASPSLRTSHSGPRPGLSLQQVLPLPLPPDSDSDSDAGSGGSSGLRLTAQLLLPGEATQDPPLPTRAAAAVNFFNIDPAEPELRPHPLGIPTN

For `CCCc1cc(CCCN2CCN(c3ccc(Cl)cc3)CC2)n(-c2ccccc2)n1` [Compound 157, 1-(4-chlorophenyl)-4-(3-(1-phenyl-3-propyl-1H-pyrazol-5-yl)propyl)piperazine], in data set [1], the ED50 was 8.8 to 14.5 mg/kg and the “Inhibitory effects on apomorphine-induced climbing behavior ED50 (mg/kg, ip)” value worked out at 14.5 mg/kg. The “rotarod deficit TD50 as times of ED50 for antipsychotic efficacy” value in the data set on rotarod deficit in mice [2] (mouse, in vivo) is on record as 2.2-5 times.
`CCCc1cc(CCCN2CCN(c3ccc(Cl)c(Cl)c3)CC2)n(-c2ccccc2)n1` [Compound 163, 1-(3,4-dichlorophenyl)-4-(3-(1-phenyl-3-propyl-1H-pyrazol-5-yl)propyl)piperazine]: the “affinity for D2 receptors (in words)” value in [3] is recorded as “extremely poor affinity”. Moreover, the IC50 in [3] ([3H]spiperone 0.5 nM, CHO cell line, 60 min at 27° C.) was determined as 1060 nM; at 5-HT6 receptor, 617 nM; at 5-HT2C receptor, 558 nM; on 5-HT1A receptor, 494 nM; in data set [4], 420 nM; on 5-HT2A receptor, 45 nM. Besides, the IC50 amounted to 651 nM at 5-HT7 receptor and 7.7 nM in data set [5].
Consider `CN1CCN(C2=Nc3cc(Cl)ccc3Nc3ccccc32)CC1` [clozapine, reference compound], for which the ED50 in data set [1] was 4 mg/kg. In addition, the “rotarod deficit TD50 as times of ED50 for antipsychotic efficacy” value with rotarod deficit in mice [2] (mice) is on record as “almost same”. Besides, in the data set “Rotarod deficit in mice [6]”, the TD50 is 3.9 mg/kg.
